The test system of one assay is IL-6. Briefly: Patients: serum and plasma IL-6 levels. The class given is in vivo, human. The method, then: Subjects with NF2 may receive continuous daily treatment with a Compound administered at 100 mg per dose, 2 times a day (BID) for up to 1 year, or longer as appropriate, or until tumor progression. […] Tumor shrinkage or an improvement in hearing are indicators of efficacy.
Anti-angiogenic activity: Assessing VEGF concentrations provides a relevant and convenient mechanism-specific marker of Compound activity. […] For example, clinically validated ELISA kits (e.g., from R&D Systems, Minneapolis, Minn.) may be used to measure concentrations of VEGF, VEGF-C, P1GF, VEGFR, and inflammatory mediators such as IL-6 and IL-8. CT scan and MRI scan may also be used to assess peritumoral inflammation or edema.
Blood for VEGF, VEGFR, and Cytokines. Two blood samples (1 for plasma and 1 for serum) may be obtained for assessment of VEGF, VEGFR, and cytokine levels.
After processing, samples may be placed into a freezer at approximately −70° C. An ELISA-based multiplex system may be used to measure plasma VEGF and cytokine levels.

The test system of assay [1] is hypoxia-inducible endogenous VEGF expression. In words: Hypoxia-inducible endogenous VEGF expression ELISA in HeLa cells, dose-response EC50 (Table 3). The assay is classed as cell-based, human. The conditions noted are these: Homo sapiens; HeLa cells, hypoxic conditions (1% O2), 24-48 hours, VEGF in conditioned media; read-out: ELISA EC50. In a few lines:
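HeLa cells kept 24-48 h under hypoxia (1% O2, 5% CO2, nitrogen balance) with or without compound, e.g. seven concentrations; secreted VEGF in conditioned medium quantified by ELISA against a standard curve. Parallel Cell Titer Glo viability under identical conditions excludes cytotoxicity.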

For assay [2], the system named is HT1080 tumor cells in vivo. In words: HT1080 xenograft studies of Compound 1205, Compound #10 and Compound 1330: tumor growth. Details: species or system athymic nude mice. The source says: Experimental Design. HT1080 cells (5×10^6 cells/mouse) were implanted subcutaneously in male athymic nude mice. […] For comparison, Compound #10 was included in this study.

Assay [3] concerns human VEGF121 and VEGF165. Briefly: HT1080 xenograft studies #21/#23: intra-tumor and pathologic plasma human VEGF (Compound 1205). To be noted: for Mean difference in human plasma VEGF (%) on Day 14 / Mean difference in human tumor VEGF (%) at Day 14: 14 days. The class given is in vivo. From the text: Experimental Design. HT1080 cells (5×10^6 cells/mice) were implanted subcutaneously into male athymic nude mice. Treatment with vehicle alone or Compound 1205 was initiated when the median tumor volume was approximately 311±88 mm^3. Table 7 and Table 9 (study design #21 and #23) provide the study design for assessing tumor and plasma pathologic VEGF concentrations—each group in each study included eight (8) mice. When the tumors in vehicle-treated mice had reached the target size of ˜1200 mm^3 for study #21 and ˜1500 mm^3 for study #23, all mice in the study were sacrificed, and excised tumors were homogenized in buffer containing protease inhibitors. Both intra-tumor and pathologic plasma human VEGF levels were measured using an ELISA that recognizes human VEGF121 and VEGF165. Intra-tumor VEGF levels were normalized to the total tumor protein concentration and pathologic plasma VEGF levels were expressed in pg/mL. Because smaller tumors produce less VEGF per mg of tumor protein, intra-tumor VEGF levels were normalized to tumor size.

In another assay the test system is T47D xenografts. In words: T47D estrogen-sensitive breast cancer xenograft: tumor growth. The conditions noted are these: 10 mg/kg oral QD.
Assay [4] concerns human VEGF121 and VEGF165. In words: HT1080 xenograft time course: pathologic plasma human VEGF. The class given is in vivo. The conditions noted are these: by Day 1. The protocol: (§1) Experimental Design. HT1080 cells (5×10^6 cells/mouse) were implanted subcutaneously in male athymic nude mice.
Tumor size was measured by calipers immediately pre-treatment and at the time of sacrifice on Day 1, 2, or 3 (5 mice per group per day). At sacrifice, the plasma was collected for assay of pathologic human VEGF concentration using an ELISA that recognizes human VEGF121 and VEGF165 (as described in Section 9.1.1.1).

The subject of the next assay is HT1080 xenografts. Briefly: BrdU labeling of cells from HT1080 xenografts grown in nude mice. The assay is classed as in vivo, athymic nude mice. To be noted: Day 1, 2, 3; Compound #10 10 mg/kg oral QD, doxorubicin 6 mg/kg IP, bevacizumab 5 mg/kg IP. The protocol: as §1
The mice were sacrificed 3 hours later, and the tumors collected. A single cell suspension was prepared from the tumor cells. The cells were permeabilized and an antibody to BrdU was used to stain cells that had entered S phase during the labeling period. The proportion of cells actively synthesizing DNA was determined by cell sorting.

The test system of another assay is HT1080 cells. Briefly: Cell cycle analysis by propidium iodide flow cytometry in HT1080 cells (percent cells in S-phase, Table 24). The assay is classed as cell-based, human. The conditions noted are these: for % Cells In S-Phase: HT1080 cells, 100 nM, 18 hours, normoxic, DMSO control […]. The method, then:
Experimental Design. […] After treatment, cells were trypsinized, and stained with propidium iodide (PI) dye to measure DNA content of individual cells by flow cytometry. Output comprised histograms showing relative DNA content in 10,000 cells.
While compounds which cause greater than 20% of the cells to accumulate in S-phase at 100 nM are considered active, a larger percentage of cells may be accumulated in S-phase at lower doses depending on the Compound, as shown in FIG. 12 for example.

The subject of assay [5] is soluble VEGF121 and VEGF165 isoforms. Briefly: VEGF inhibition EC50 by ELISA in the same human tumor cell lines (Table 25). The assay is classed as cell-based. The conditions noted are these: tumor cells; data not shown. The method, then: Results. […] The conditioned media were collected and assayed by ELISA for soluble VEGF121 and VEGF165 isoforms (as described in Section 9.1.1.1); results were calculated as percentage inhibition relative to vehicle treated controls. EC50 values were calculated from the concentration response curves.

Marks after values point to notes of the source that are not given here.

Description for T47D xenografts: Experimental Design. Estrogen pellets (0.72 mg/pellet) were implanted 30 days prior to cell implantation and again 60 days later. T47D estrogen-sensitive breast cancer cells (5×10^6 cells/mouse mixed 1:1 with […] ™) were implanted subcutaneously in female athymic nude mice. […] Tamoxifen was included as a positive control.
Tumor size was measured by calipers at periodic intervals. After 74 days of treatment, the mice were sacrificed.

As to `COc1ccc([C@H]2c3[nH]c4ccc(Cl)cc4c3CCN2C(=O)Oc2ccc(Cl)cc2)cc1` [#10], the “Serum IL-6 levels in patients (FIG. 37)” value in the assay with IL-6 is recorded as “reduced”. For the same molecule, the EC50 in [1] is less than 8 nM.

As for `O=C(Oc1ccc(Cl)cc1)N1CCc2c([nH]c3ccc(Cl)cc23)[C@@H]1c1ccc(OCC[C@H](O)CO)cc1` [Compound 1205], in assay [2] (HT1080 xenografts, QD), the “Lowest dose at which active on tumor growth” value was determined as 0.3 mg/kg. In addition, the “Mean difference in tumor growth rate at the Day that the vehicle-treated tumors taken off study” value in assay [2] (Study 21, 0.5 mg/kg QD, Day 14) came to 61%**; in assay [2] (Study 21, 3 mg/kg QD, Day 14), 80%**; in assay [2] (Study 22, 0.5 mg/kg QD, Day 11), 62%**; in assay [2] (Study 22, 3 mg/kg QD, Day 11), 75%**; in assay [2] (Study 23, 1 mg/kg QD, Day 14) it was 59%**; in [2] (Study 24a, 10 mg/kg QD, Day 11), 76%**. Besides, the “Mean difference in tumor growth rate at the Day that the vehicle-treated tumors taken off study” value in assay [2] (Study 24b, 0.3 mg/kg QD, Day 15) came out at 28%. For the same molecule, the “Final mean terminal tumor size in treatment group” value stood at 580 mm^3 in assay [2] (Study 21, 0.5 mg/kg QD, PD, 14 days); 379 mm^3 in [2] (Study 21, 3 mg/kg QD, PD, 14 days); 1750 mm^3 in assay [2] (Study 22, 0.5 mg/kg QD, Xeno); 1840 mm^3 in assay [2] (Study 22, 3 mg/kg QD, Xeno); 710 mm^3 in [2] (Study 23, 1 mg/kg QD, PD, 14 days); 1400 mm^3 in assay [2] (Study 24a, 10 mg/kg QD, Xeno). Besides, the “Final mean terminal tumor size in treatment group” value in [2] (Study 24b, 0.3 mg/kg QD, Xeno) is reported as 1540 mm^3. The “Difference vs. vehicle in median number of days to reach 1000 mm^3” value is 11 days in assay [2] (Study 22, 0.5 mg/kg QD); 14** Days in assay [2] (Study 22, 3 mg/kg QD); 14** Days in assay [2] (Study 24a, 10 mg/kg QD); 0.7 days in assay [2] (Study 24b, 0.3 mg/kg QD). Moreover, the EC50 in assay [1] was less than 8 nM. In assay [3] (0.5 or 3 mg/kg QD), the “Inhibition of pathologic plasma human VEGF levels” value was “more than 95%”. Besides, in [3] (0.5 or 3 mg/kg QD), the “Inhibition of tumor human VEGF levels” value was “more than 95%”. The “Mean difference in human plasma VEGF (%) on Day 14” value turned out to be 97%** in [3] (Study #21, 0.5 mg/kg QD); 99% in assay [3] (Study #21, 3 mg/kg QD); 100%** in [3] (Study #23, 1 mg/kg QD). For the same molecule, the “Mean difference in human tumor VEGF (%) at Day 14” value in assay [3] (Study #21, 0.5 mg/kg QD) is listed as 95%**; in assay [3] (Study #21, 3 mg/kg QD), 98%**; in [3] (Study #23, 1 mg/kg QD) it was 95** %.

On to `CC/C(=C(\c1ccccc1)c1ccc(OCCN(C)C)cc1)c1ccccc1` [Tamoxifen, tamoxifen, reference compound], for which, in the assay on T47D xenografts, the “Mean % Inhibition of Tumor Size vs Vehicle at Day 74” value amounted to 50%.

Take `COc1cccc2c1C(=O)c1c(O)c3c(c(O)c1C2=O)C[C@@](O)(C(=O)CO)C[C@@H]3O[C@H]1C[C@H](N)[C@H](O)[C@H](C)O1` [doxorubicin, reference compound]: in [4], the “Pathologic plasma human VEGF levels vs control animals” value was “numerically lower than in control animals”. In the assay on HT1080 xenografts, the “BrdU staining of tumor cells (proportion of cells in S phase)” value is “decreased the percentage of tumor cells staining with BrdU”.

As for `COc1ccc(OC(=O)N2CCc3c([nH]c4ccc(Br)cc34)[C@@H]2c2ccc(Cl)cc2)cc1` [drawing 527], in the assay on HT1080 cells, the “% Cells In S-Phase” value is reported as 26.4%.

Consider `O=C(Oc1ccc(Cl)cc1)N1CCc2c([nH]c3ccc(Cl)cc23)[C@@H]1c1ccc(OCC[C@H](O)CO)cc1` [drawing 529], for which the “% Cells In S-Phase” value in the assay with HT1080 cells is 20.0%.

Consider `C=CCOc1ccc([C@H]2c3[nH]c4ccc(Cl)cc4c3CCN2C(=O)Oc2ccc(Cl)cc2)cc1` [drawing 533], for which the “% Cells In S-Phase” value in the assay with HT1080 cells was 17.2%.

For the molecule `O=C(Oc1ccc(Cl)cc1)N1CCc2c([nH]c3ccc(Cl)cc23)C1c1ccc(OCCN2CCOCC2)cc1` (centres unmarked) [drawing 535], the “% Cells In S-Phase” value in the assay on HT1080 cells is 16.4%.

`O=C(Oc1ccc(F)cc1)N1CCc2c([nH]c3ccc(Cl)cc23)[C@@H]1c1ccc(OCC[C@H](O)CO)cc1` [drawing 537]: the “% Cells In S-Phase” value with HT1080 cells came out at 20.6%.

On to `O=C(Oc1ccc(Cl)cc1)N1CCc2c([nH]c3ccc(Cl)cc23)[C@H]1c1ccc(OCC[C@H](O)CO)cc1` [drawing 538], for which, in the assay on HT1080 cells, the “% Cells In S-Phase” value was found to be 17%.

For the molecule `NC(Cn1ccc(=O)c(O)c1)C(=O)O` (centres unmarked) [mimosine, reference compound], in the assay with HT1080 cells (tumor cells, data not shown), the “Effect on the cell cycle” value is listed as “does not delay or prolong the cell cycle”. For the same molecule, the “Effect on VEGF production” value in assay [5] is on record as “does not delay or prolong the cell cycle or reduce VEGF production”.

The record behind these values is US20120157401A1, “METHODS FOR TREATING NEUROFIBROMATOSIS” (PTC Therapeutics, Inc., priority 2009, published 2012).
